Reference: paper PMC3449313 (Peptides, 2012)

Columns and labels:
[1] = test system: D. melanogaster adult gut; test: adult gut contraction; assay type: in vivo, Drosophila melanogaster; conditions: 0.1 nM; without PI; relative to the effect of DMS; mean
[2] = test system: D. melanogaster pupal heart (white prepupae); assay type: in vivo, Drosophila melanogaster; conditions: 1 uM; without PI; relative to the effect of DMS; mean

VFLRFamide [[6-10]DMS]
% Inhibition Adult gut (without protease inhibitor) [1]: 78%
% Inhibition Pupal heart (without protease inhibitor) [2]: 103%
